From patent publication US8008298B2, “Pyrrolopyrazine kinase inhibitors” (Roche Palo Alto, priority 2008, dated 2011)
Counter-ions that a name gives are not always drawn.

SMILES | melting point
COc1cc(-c2cnc3[nH]cc(C(=O)NCC(C)(C)CO)c3n2)cc(OC)c1OC [Example 15, 2-(3,4,5-Trimethoxy-phenyl)-5H-pyrrolo[2,3-b]pyrazine-7-carboxylic acid (3-hydroxy-2,2-dimethyl-propyl)-amide] | 224 to 225 °C
COc1cc(-c2cnc3[nH]cc(C(=O)NCC(C)O)c3n2)cc(OC)c1OC (centres unmarked) [Example 22, 2-(3,4,5-Trimethoxy-phenyl)-5H-pyrrolo[2,3-b]pyrazine-7-carboxylic acid (2-hydroxy-propyl)-amide] | 201.9 to 202.6 °C
COc1cc(-c2cnc3[nH]cc(C(=O)NC4CCCOC4)c3n2)cc(OC)c1OC (centres unmarked) [Example 23, 2-(3,4,5-Trimethoxy-phenyl)-5H-pyrrolo[2,3-b]pyrazine-7-carboxylic acid (tetrahydro-pyran-3-yl)-amide] | 191 to 192 °C
COc1ccc(-c2cnc3[nH]cc(C(=O)NC4CCN(C(C)=O)C4)c3n2)cc1OC (centres unmarked) [Example 26, 2-(3,4-Dimethoxy-phenyl)-5H-pyrrolo[2,3-b]pyrazine-7-carboxylic acid (1-acetyl-pyrrolidin-3-yl)-amide] | 211 to 212 °C
CC(C)(C)C(=O)c1c[nH]c2ncc(-c3cccc(N4CCCC4)c3)nc12 [Example 33, 2,2-dimethyl-1-[2-(3-pyrrolidin-1-yl-phenyl)-5H-pyrrolo[2,3-b]pyrazin-7-yl]-propan-1-one] | 259 to 260 °C
COc1cc(-c2cnc3[nH]cc(C(=O)C(C)(CO)CO)c3n2)cc(OC)c1OC [Example 58, 3-Hydroxy-2-hydroxymethyl-2-methyl-1-[2-(3,4,5-trimethoxy-phenyl)-5H-pyrrolo[2,3-b]pyrazin-7-yl]-propan-1-one] | 222 to 223 °C
COc1cc(-c2cnc3[nH]cc(C(=O)Cc4ccccc4)c3n2)cc(OC)c1OC [Example 64, 2-phenyl-1-[2-(3,4,5-trimethoxy-phenyl]-5H-pyrrolo[2,3-b]pyrazin-7-yl]-ethanone] | 226 to 227 °C
COc1cc(-c2cnc3[nH]cc(C(=O)C(C)(C)C)c3n2)cc(OC)c1OC [Example 67, 2,2-Dimethyl-1-[2-(3,4,5-trimethoxy-phenyl)-5H-pyrrolo[2,3-b]pyrazin-7-yl]-propan-1-one] | 240 to 241 °C
COc1cc(-c2cnc3[nH]cc(C(=O)C(C)C)c3n2)cc(OC)c1OC [Example 68, 2-Methyl-1-[2-(3,4,5-trimethoxy-phenyl)-5H-pyrrolo[2,3-b]pyrazin-7-yl]-propan-1-one] | 189 to 190 °C

Results, then the compound that gave them:

melting point | SMILES
199 to 200 °C | COc1cc(-c2cnc3[nH]cc(C(=O)NCC(C)OC)c3n2)cc(OC)c1OC (centres unmarked) (as salt: hydrochloride) [Example 24, 2-(3,4,5-Trimethoxy-phenyl)-5H-pyrrolo[2,3-b]pyrazine-7-carboxylic acid (2-methoxy-propyl)-amide]
290 to 292.4 °C | COc1ccc(-c2cnc3[nH]cc(C(N)=O)c3n2)cc1OC [Example 18, 2-(3,4-Dimethoxy-phenyl)-5H-pyrrolo[2,3-b]pyrazine-7-carboxylic acid amide]
193 to 194 °C | COc1ccc(-c2cnc3[nH]cc(C(=O)NC4CCN(C)C4)c3n2)cc1OC (centres unmarked) [Example 25, 2-(3,4-Dimethoxy-phenyl)-5H-pyrrolo[2,3-b]pyrazine-7-carboxylic acid (1-methyl-pyrrolidin-3-yl)-amide]
243 to 245.4 °C | CC1(C(=O)c2c[nH]c3ncc(-c4cccc(N5CCCC5)c4)nc23)CCCCC1 [Example 36, (1-Methyl-cyclohexyl)-[2-(3-pyrrolidin-1-yl-phenyl)-5H-pyrrolo[2,3-b]pyrazin-7-yl]-methanone]
210 to 211.4 °C | COc1cc(-c2cnc3[nH]cc(C(=O)CC(C)C)c3n2)cc(OC)c1OC [Example 63, 3-methyl-1-[2-(3,4,5-trimethoxy-phenyl)-5H-pyrrolo[2,3-b]pyrazin-7-yl]-butan-1-one]
